Reference: patent US8785489B2, “Heteroaryl substituted indole compounds useful as MMP-13 inhibitors” (Boehringer Ingelheim International GmbH, priority 2008, dated 2014)

Target: MMP13 (Homo sapiens (Human), UniProt P45452)
Assay: EnzoLyte 520 Generic MMP Assay Kit, 5-FAM/QXL 520 FRET peptide substrate
Type: biochemical
From the text: The EnzoLyte™ 520 Generic MMP Assay Kit (AnaSpec Inc.) can detect the activity of several MMPs including MMP-1, 2, 3, 7, 8, 9, 13, and 14. This kit uses a 5-FAM/QXL™ 520 fluorescence resonance energy transfer (FRET) peptide as an MMP substrate. In the intact FRET peptide, the fluorescence of 5-FAM is quenched by QXL™ 520. Upon cleavage into two separate fragments by MMPs, the fluorescence of 5-FAM is recovered, and can be monitored at excitation/emission wavelengths=490 nm/520 nm. The assays are performed in a convenient 96-well or 384-well microplate format.

Compound | IC50 [nM]
Cc1noc(-c2cc3cc(-c4nc(C(=O)NCC5CCCO5)[nH]c4C)ccc3[nH]2)n1 (centres unmarked) [5-methyl-4-[2-(3-methyl-1,2,4-oxadiazol-5-yl)-1H-indol-5-yl]-N-(tetrahydrofuran-2-ylmethyl)-1H-imidazole-2-carboxamide] | 3
Cc1noc(-c2cc3cc(-c4nc(C(=O)NCc5cnn(C)c5)[nH]c4C)ccc3[nH]2)n1 [5-methyl-4-[2-(3-methyl-1,2,4-oxadiazol-5-yl)-1H-indol-5-yl]-N-[(1-methyl-1H-pyrazol-4-yl)methyl]-1H-imidazole-2-carboxamide] | 0.4
Cc1noc(-c2cc3cc(-c4nc(C(=O)NC[C@H]5CCCO5)[nH]c4C)ccc3[nH]2)n1 [5-methyl-4-[2-(3-methyl-1,2,4-oxadiazol-5-yl)-1H-indol-5-yl]-N-[(2R)-tetrahydrofuran-2-ylmethyl]-1H-imidazole-2-carboxamide] | 5
Cc1noc(-c2cc3cc(-c4nc(C(=O)NC[C@@H]5CCCO5)[nH]c4C)ccc3[nH]2)n1 [5-methyl-4-[2-(3-methyl-1,2,4-oxadiazol-5-yl)-1H-indol-5-yl]-N-[(2S)-tetrahydrofuran-2-ylmethyl]-1H-imidazole-2-carboxamide] | 4
Cc1noc(-c2cc3cc(-c4nc(C(=O)NCc5cc(C)on5)[nH]c4C)ccc3[nH]2)n1 [5-methyl-N-[(5-methylisoxazol-3-yl)methyl]-4-[2-(3-methyl-1,2,4-oxadiazol-5-yl)-1H-indol-5-yl]-1H-imidazole-2-carboxamide] | 0.9
CCOC(=O)c1cc2cc(-c3ccnc(C(=O)NCc4ccncc4)c3)ccc2[nH]1 [5-{2-[(Pyridin-4-ylmethyl)-carbamoyl]-pyridin-4-yl}-1H-indole-2-carboxylic acid ethyl ester] | 94
Cc1noc(-c2cc3cc(-c4nc(C(=O)NCC5CC5)[nH]c4C)ccc3[nH]2)n1 [N-(cyclopropylmethyl)-5-methyl-4-[2-(3-methyl-1,2,4-oxadiazol-5-yl)-1H-indol-5-yl]-1H-imidazole-2-carboxamide] | 8
Cc1noc(-c2cc3cc(-c4cc(C(=O)NCc5ccno5)nn4C)ccc3[nH]2)n1 [N-(isoxazol-5-ylmethyl)-1-methyl-5-[2-(3-methyl-1,2,4-oxadiazol-5-yl)-1H-indol-5-yl]-1H-pyrazole-3-carboxamide] | 19
Cc1noc(-c2cc3cc(-c4nc(C(=O)NCc5ccno5)[nH]c4C)ccc3[nH]2)n1 [N-(isoxazol-5-ylmethyl)-5-methyl-4-[2-(3-methyl-1,2,4-oxadiazol-5-yl)-1H-indol-5-yl]-1H-imidazole-2-carboxamide] | 0.7
Cc1noc(-c2cc3cc(-c4cc(C(=O)NCc5ccnc(Cl)c5)nn4C)ccc3[nH]2)n1 [N-[(2-chloropyridin-4-yl)methyl]-1-methyl-5-[2-(3-methyl-1,2,4-oxadiazol-5-yl)-1H-indol-5-yl]-1H-pyrazole-3-carboxamide] | 4
Cc1noc(-c2cc3cc(-c4nc(C(=O)NCc5ccnc(C#N)c5)[nH]c4C)ccc3[nH]2)n1 [N-[(2-cyanopyridin-4-yl)methyl]-5-methyl-4-[2-(3-methyl-1,2,4-oxadiazol-5-yl)-1H-indol-5-yl]-1H-imidazole-2-carboxamide] | 0.95
Cc1noc(-c2cc3cc(-c4cc(C(=O)NCc5ccccc5)nn4C)ccc3[nH]2)n1 [N-benzyl-1-methyl-5-[2-(3-methyl-1,2,4-oxadiazol-5-yl)-1H-indol-5-yl]-1H-pyrazole-3-carboxamide] | 26
Cc1noc(-c2cc3cc(-c4nc(C(=O)NCc5ccccc5)[nH]c4C)ccc3[nH]2)n1 [N-benzyl-5-methyl-4-[2-(3-methyl-1,2,4-oxadiazol-5-yl)-1H-indol-5-yl]-1H-imidazole-2-carboxamide] | 2
Cc1noc(-c2cc3cc(-c4nc(C(=O)NC5CC5)[nH]c4C)ccc3[nH]2)n1 [N-cyclopropyl-5-methyl-4-[2-(3-methyl-1,2,4-oxadiazol-5-yl)-1H-indol-5-yl]-1H-imidazole-2-carboxamide] | 26
